Source: US20050002922A1, “Use of secretin and secretin analogs to treat affective disorders” (priority 2003, published 2005)

How the values were obtained:
[1] = system: rats (fear-potentiated startle); test: Fear-potentiated startle paradigm in rats; assay type: in vivo, rat
Experimental: The conditioned stimulus (CS) was a 3.7 second light (80 lux) produced by an 8 W fluorescent bulb (100 msecond rise time) located 10 cm behind each cage. Luminosity was measured using a VWR light meter (Atlanta, Ga.). The US was a 0.5 second shock, delivered to the floorbars and produced by a shock generator (SGS-004; LeHigh Valley, Beltsville, Md.). Shock intensities (measured as in Cassella et al., Physiol Behav 36:1187-91, 1986) were 0.4 mA. The presentation and sequencing of all stimuli were under the control of the Macintosh G3 computer using custom-designed software (The Experimenter; Glassbeads Inc., Newton, Conn.).
The experiment was run in four replications.
Fear conditioning. On each of the next 2 days, rats were returned to the test chambers and 5 minutes later given the first of 10 light-footshock pairings. The 0.4 mA 0.5 second shock was delivered during the last 0.5 second of the 3.7 second light. The average intertrial interval (ITI) was 4 minutes (range, 3-5 minutes).

[2] = system: rats (baseline acoustic startle); conditions: rat, in vivo, ip
Experimental: A total of 72 male Sprague-Dawley rats (Charles River, Portage, Mich.) weighing 350-450 g were used. Animals were maintained on a 12:12 hour light-dark cycle (lights on at 0700) with food and water continuously available. All rats were housed in group cages of four rats each in a temperature-controlled (24° C.) animal colony.
Animals were trained and tested in 8×15×15 cm Plexiglas® and wire-mesh cages. Each cage floor consisted of four 6.0 mm diameter stainless-steel bars spaced 18 mm apart. Each cage was suspended between compression springs within a steel frame and located within a custom-designed 90×70×70 cm ventilated sound-attenuating chamber. Background noise (60 dB wide-band) was provided by a General Radio Type 1390-B noise generator (Concord, Mass.) and delivered through high-frequency speakers (Radio Shack Supertweeter; Tandy, Fort Worth, Tex.) located 5 cm in front of each cage. Sound level measurements (sound pressure level) were made with a Bruel & Kjaer (Marlborough, Mass.) model 2235 sound-level meter (A scale; random input) with the microphone (Type 4176) located 7 cm from the center of the speaker (approximating the distance of the rat's ear from the speaker). […]

Fos protein expression = test: Brain gene expression measured by Fos protein expression; assay type: in vivo, rat
[3] = system: rats (spatial learning and memory)
Description: The M swim maze was developed to test spatial learning and memory (e.g., functional memory). The animal has no visual or spatial cues in the pool and must rely on extra-maze cues (e.g., light setup outside the pool that can be seen by the swimming animal). Through a series of trials a rat develops “place learning” or knowledge about the position of the escape platform based upon the extra-maze cues. The platform can be moved to a different arm of the M configuration each day, combining spatial memory with working memory. This paradigm involves extinction of the prior memory and resolution of a new spatial problem.
Test Animals. A total of 40 male rats were used.
Behavioral Procedures and Data Analysis. Rats (10/group) were treated by tail vein injection with vehicle, 0.4 μg/kg/day, 4.0 μg/kg/day, and 40 μg/kg/day secretin on post natal day 25 through postnatal day 70 (45 days). Learning and memory was evaluated in a water M-maze. The evaluation consisted of 10 trials/day for each animal on 4 successive days to assess short-term memory. The goal was to escape from the maze via a platform located on the lighted arm of an M-shaped maze. After placement of the animal in the central arm of the M-shaped maze, the goal side was varied for each animal at each trial according to a predetermined computer generated sequence. The same animals were also tested 5 days after the initial testing to assess long-term memory. On that day each animal were allowed 10 trials in the maze and time to escape was measured. Significance was calculated versus the control group value for the same day of testing using a T-test.

effect of higher doses on baseline startle [2]: tended to suppress baseline startle
ability to learn and remember a spatial associative memory task ([3]; rat, in vivo, iv): does not impair
Substance: secretin
minimum dose possessing anxiolytic properties in fear-potentiated startle paradigm ([1]; i.p.): 3 µg/kg
effect on expression of fear-potentiated startle ([1]; i.p. 1-100 μg/kg immediately prior to testing): dose dependently impaired expression of fear-potentiated startle
dose giving greatest impairment of fear-potentiated startle ([1]; i.p. immediately prior to testing): 10 µg/kg
dose giving peak change in Fos protein expression (Fos protein expression; i.p. or i.v.): 40 µg/kg
minimum dose to detect significant changes in brain gene expression (Fos protein) (Fos protein expression; i.v. or i.p.): 4 µg/kg
learning performance in water M-maze relative to controls ([3]; rats, 0.4 or 4.0 μg/kg/day i.v., after 4 training days, maintained after 5 day rest): improved in learning performance
minimum dose that improves functional memory in M swim maze ([3]; rats, i.v.): 0.4 µg/kg
